The record followed here is patent US6420387B1, “Farnesyl protein transferase inhibiting (imidazol-5-yl) methyl-2-quinolinone derivatives” (Janssen Pharmaceutica N.V., priority 1995, dated 2002).

Series [1] has as its target T1, Human farnesyl protein transferase (Homo sapiens, UniProt P49354+P49356).
T1 construct: grown as monolayer cell cultures were used as a source of human enzyme; endogenous in cells; host or cells: KHOS (Kirsten virus transformed human osteosarcoma) cells, grown as solid tumors in nude mice or as monolayer cultures; 30-50% ammonium sulfate fraction, then Q Fast Flow Sepharose
Nature of the series: In vitro assay for inhibition of farnesyl protein transferase (scintillation proximity assay). The series is classed as biochemical. The conditions noted are these: concentration producing 50% inhibition of enzyme activity; [3H]-farnesylpyrophosphate and biotinylated lamin B peptide substrates, 60 min at 37° C. The method, then: Human farnesyl protein transferase was prepared essentially as described (Y. Reiss et al., Methods: A Companion to Methods in Enzymology vol 1, 241-245, 1990). Kirsten virus transformed human osteosarcoma (KHOS) cells (American Type Culture Collection, Rockville, Md., USA) grown as solid tumors in nude mice or grown as monolayer cell cultures were used as a source of human enzyme. Briefly, cells or tumors were homogenized in buffer containing 50 mM Tris, 1 mM EDTA, 1 mM EGTA and 0.2 mM phenylmethylsulfonylfluoride (pH 7.5). The homogenates were centrifuged 28,000×g for 60 min and the supernatants collected. A 30-50% ammonium sulfate fraction was prepared, and the resulting precipitate was resuspended in a small (10 to 20 ml) volume of dialysis buffer containing 20 mM Tris 1 mM dithiothreitol and 20 μM ZnCl2. The ammonium sulfate fraction was dialyzed overnight against two changes of the same buffer. The dialyzed material was applied to a 10×1 cm Q Fast Flow Sepharose (Pharmacia LKB Biotechnology Inc., Piscataway, N.J., USA) which had been preequilibrated with 100 ml of dialysis buffer supplemented with 0.05 M NaCl. The column was washed with an additional 50 ml of dialysis buffer plus 0.05 M NaCl followed by a gradient from 0.05 M to 0.25 M NaCl prepared in dialysis buffer. The enzyme activity was eluted with a linear gradient of 0.25 to 1.0 M NaCl prepared in the dialysis buffer. Fractions containing 4 to 5 ml volumes of column eluate were collected and analyzed for farnesyl protein transferase activity. Fractions with enzyme activity were pooled and supplemented with 100 μM ZnCl2. Enzyme samples were stored frozen at −70° C.
The activity of farnesyl protein transferase was measured using the Farnesyl Transferase [^3H] Scintillation Proximity Assay (Amersham International plc., England) under the conditions specified by the manufacturer. To assay for inhibitors of the enzyme, 0.20 μCi of the [^3H]-famesylpyrophosphate substrate and the biotinylated lamin B peptide substrate (biotin-YRASNRSCAIM) were mixed with test compounds in a reaction buffer consisting of 50 mM HEPES, 30 mM MgCl2, 20 mM KCl, 5 mM dithiothreitol, 0.01% Triton X-100. Test compounds were delivered in a 10 μl volume of dimethylsulfoxide (DMSO) to achieve concentrations of 1 and 10 μg/ml in a final volume of 100 μl. The reaction mixture was warmed to 37° C. The enzyme reaction was started by adding 20 μl of diluted human farnesyl protein transferase. Sufficient enzyme preparation was added to produce between 4000 to 15000 cpm of reaction product during the 60 min of reaction incubation at 37° C. Reactions were terminated by the addition of STOP/scintillation proximity bead reagent (Amersham). The reaction product [^3H]-farnesyl-(Cys)-biotin lamin B peptide was captured on the streptavidin linked scintillation proximity bead. The amount of [^3H]-farnesyl-(Cys)-biotin lamin B peptide synthesized in the presence or absence of test compounds was quantified as cpm by counting on a Wallac Model 1480 Microbeta Liquid Scintillation Counter. The cpm of product was considered to be farnesyl protein transferase activity. The protein farnesyl transferase activity observed in the presence of test compound was normalized to farnesyl transferase activity in the presence of 10% DMSO and expressed as per cent inhibition. […] The effects of test compounds in these studies were calculated as IC50 (concentration of test compound producing 50% inhibition of enzyme activity) using the LGICV50 computer program written by the Science Information Division of R. W. Johnson Pharmaceutical Research Institute (Spring House, Pa., USA) on a VAX computer.
A general note: Scintillation proximity formats need no separation of bound from free tracer.

Series [2] has as its system NIH 3T3 cells transformed by the T24 activated human H-ras gene. Nature of the series: Ras-transformed cell phenotype reversion assay. The series is classed as cell-based, mouse. The conditions noted are these: NIH3T3; cell counts after 72 hours proliferation, corrected for initial input of 200,000 cells. From the text: Insertion of activated oncogenes such as the mutant ras gene into mouse NIH 3T3 cells converts the cells to a transformed phenotype. The cells become tumorigenic, display anchorage independent growth in semi-solid medium and lose contact inhibition. Loss of contact inhibition produces cell cultures which no longer form uniform monolayers. Rather, the cells pile up into multicellular nodules and grow to very high saturation densities in plastic tissue culture dishes. Agents such as protein farnesyl transferase inhibitors which revert the ras transformed phenotype restore the uniform monolayer growth pattern to cells in culture. This reversion is easily monitored by counting the number of cells in tissue culture plates. Transformed cells will achieve higher cell numbers than cells which have reverted to an untransformed phenotype. Compounds which revert the transformed phenotype should produce antitumor effects in tumors bearing ras gene mutations.
Compounds are screened in tissue culture in NIH 3T3 cells transformed by the T24 activated human H-ras gene. Cells are seeded at an initial density of 200,000 cells per well (9.6 cm^2 surface area) in six-well cluster tissue culture plates. Test compounds are immediately added to 3.0 ml cell growth medium in a 3.0 μl volume of DMSO, with a final concentration of DMSO in the cell growth medium of 0.1%. The test compounds are run at concentrations of 5, 10, 50, 100, and 500 nM along with a DMSO treated vehicle control. (In case a high activity is observed at 5 nM, the test compound is tested at even lower concentrations.) The cells are allowed to proliferate for 72 hours. Then the cells are detached in 1.0 ml trypsin-EDTA cell dissociation medium and counted on a Coulter particle counter.
Cell numbers expressed as cells per well are measured using a Coulter Particle Counter.
All cell counts were corrected for the initial cell input density by subtracting 200,000.
Control cell counts=[cell counts from cells incubated with DMSO vehicle −200,000].
Test compound cell counts=[cell counts from cells incubated with test compound −200,000]. [formula]
IC50 (i.e. the test compound concentration required to inhibit enzyme activity by 50%) is calculated if sufficient data are available, summarized in table 11.

In series [3] the test system is T24 activated human H-ras gene transformed NIH 3T3 fibroblast cells (T24 cells). The experiment in a line: Farnesyl protein transferase inhibitor secondary tumor model. The series is classed as in vivo. To be noted: nude mice with subcutaneous T24 cell tumors, 15 days of treatment. The text has this:
The enzyme farnesyl protein transferase catalyzes the covalent attachment of a farnesyl moiety derived from farnesyl pyrophosphate to the oncogene product p21^ras. This directs p21^ras to attach to plasma membranes. Once attached to plasma membranes, mutant or oncogenic forms of p21^ras will provide a signal for the transformation and uncontrolled growth of malignant tumor cells. Therefore, inhibitors of protein farnesyl transferase will prevent the membrane attachment of p21^ras and inhibit growth of ras-transformed tumors.
Nude mice are inoculated with 1×10^6 of T24 activated human H-ras gene transformed NIH 3T3 fibroblast cells (T24 cells), subcutaneously in the inguinal region. After three days to allow tumors to become established, treatment with test compounds is begun via the oral route. The test compounds are dissolved in a 20% β-cyclodextrin in 0.1 N HCl solution and administered orally as 0.1 ml of compound solution per 10 g mouse body weight. Routinely used doses are 6.25, 12.5 and 25 mg/kg. Body weights and tumor sizes are monitored during the ensuing 15 days of treatment. At the end of treatment, animals are sacrificed and tumors are weighed.
The “mean vehicle treated tumor weight” is defined as the mean tumor weight from 10 to 15 mice […].
The “mean tumor weight” is defined as the mean tumor weight from 10 to 15 mice […]. [formula]

For orientation: melting point means the temperature of the solid-liquid transition. Regarding `COC(c1ccc(Cl)cc1)(c1ccc2c(c1)c(-c1cccc(Cl)c1)cc(=O)n2C)c1cncn1C` (racemic) (hydrate or solvate) [Compound 4, (±)-4-(3-chlorophenyl)-6-[(4-chlorophenyl)methoxy(1-methyl-1H-imidazol-5-yl)methyl]-1-methyl-2(1H)-quinolinone ethanedioate(1:1).dihydrate], the melting point was found to be 154.6 °C.
On the same count and under the same terms, the figure for `Cn1cncc1C(c1ccc(Cl)cc1)c1ccc2c(c1)c(-c1cccc(Cl)c1)cc(=O)n2C` (racemic) (hydrate or solvate) [Compound 5, (±)-4-(3-chlorophenyl)-6-[(4-chlorophenyl)(1-methyl-1H-imidazol-5-yl)methyl]-1-methyl-2(1H)-quinolinone ethanedioate(1:1).mono-hydrate] is 157.4 °C.
As a reminder, the IC50 is the concentration that inhibits the measured activity by half. As to `Cn1cncc1C(c1ccc(Cl)cc1)c1ccc2c(c1)c(-c1ccccc1)cc(=O)n2C` (racemic) [Compound 2, (±)-6-[(4chlorophenyl)(1-methyl-1H-imidazol-5-yl)methyl]-1-methyl-4-phenyl-2(1H)-quinolinone], the melting point worked out at 96.8 °C. The molecule further had an IC50 in series [1] of 8 nM.
The matching figures for `Cn1cncc1C(O)(c1ccc(Cl)cc1)c1ccc2c(c1)c(-c1cccc(Cl)c1)cc(=O)n2C` (racemic) [Compound 3, (±)-4-(3-chlorophenyl)-6-[(4-chlorophenyl)hydroxy(1-methyl-1H-imidazol-5-yl)methyl]-1-methyl-2(1H)-quinolinone]: 233.6 °C and 1.7 nM.
In the case of `CCCCn1cncc1C(O)(c1ccc(Cl)cc1)c1ccc2c(c1)c(-c1cccc(Cl)c1)cc(=O)n2C` (racemic) [Compound 9, (±)-4-(3-chlorophenyl)-6-[(1-butyl-1H-imidazol-5-yl)(4-chlorophenyl)hydroxymethyl]-1-methyl-2(1H)-quinolinone], the melting point is 174.6 °C.
In turn, `Cn1cncc1C(C)(c1ccc(Cl)cc1)c1ccc2c(c1)c(-c1cccc(Cl)c1)cc(=O)n2C` (racemic) [Compound 12, (±)-4-(3-chlorophenyl)-6-[1-(4-chlorophenyl)-1-(1-methyl-1H-imidazol-5-yl)ethyl]-1-methyl-2(1H)-quinolinone.ethanedioate (1:1)] had a melting point of 203.9 °C. Moreover, the IC50 in series [2] is 66 nM. This molecule returned an IC50 in series [1] of 4.2 nM.
Consider `Cn1cncc1C(N)(c1ccc(Cl)cc1)c1ccc2c(c1)c(-c1cccc(Cl)c1)cc(=O)n2C` (racemic) [Compound 14, (±)-6-[amino(4-chlorophenyl)(1-methyl-1H-imidazol-5-yl)methyl]-4-(3-chlorophenyl)-1-methyl-2(1H)-quinolinone], for which the “% reduction final tumor weight at a dose of 25 mg/kg bid, po” value in series [3] worked out at 66%. For the same molecule, in series [2], the IC50 is 3.8 nM.
As to `Cn1cncc1C(CC#N)(c1ccc(Cl)cc1)c1ccc2c(c1)c(-c1cccc(Cl)c1)cc(=O)n2C` (racemic) [Compound 25, (±)-4-(3-chlorophenyl)-β-(4-chlorophenyl)-1,2-dihydro-1-methyl-β-(1-methyl-1H-imidazol-5-yl)-2-oxo-6-quinolinepropanenitrile], the melting point turned out to be 151.3 °C. The same molecule gave an IC50 in series [2] of 86 nM. Besides, the IC50 in series [1] was 2.2 nM.
Regarding `Cn1cnc(C(c2ccc(Cl)cc2)c2ccc3c(c2)c(-c2ccccc2)cc(=O)n3C)c1` (racemic) [Compound 44, (±)-6-[(4-chlorophenyl)(1-methyl-1H-imidazol-4-yl)methyl]-1-methyl-4-phenyl-2(1H)-quinolinone], the melting point is 149.9 °C.
Regarding `CC(=O)NC(c1ccc(Cl)cc1)(c1ccc2c(c1)c(-c1cccc(Cl)c1)cc(=O)n2C)c1cncn1C.O=C(O)C(=O)O` (racemic) [Compound 56, (±)-N-[(4-chlorophenyl)[4-(3-chlorophenyl)-1,2-dihydro-1-methyl-2-oxo-6-quinolinyl](1-methyl-1H-imidazol-5-yl)methyl]acetamide ethanedioate (1:1)], the “% reduction final tumor weight at a dose of 25 mg/kg bid, po” value in series [3] came out at 42%. This molecule also displayed an IC50 in series [2] of 23 nM.
For the molecule `CN(C)C(c1ccc(Cl)cc1)(c1ccc2c(c1)c(-c1cccc(Cl)c1)cc(=O)n2C)c1cncn1C` (stereo not shown) [Compound 66], the figures for the IC50 in series [2] and in series [1] were 19 nM and 4 nM, respectively.
The matching figures for `COCCNC(c1ccc(Cl)cc1)(c1ccc2c(c1)c(-c1cccc(Cl)c1)cc(=O)n2C)c1cncn1C` (stereo not shown) [Compound 67]: 51 nM and 5.9 nM.
The like results for `Cn1cncc1C(CO)(c1ccc(Cl)cc1)c1ccc2c(c1)c(-c1cccc(Cl)c1)cc(=O)n2C` (stereo not shown) [Compound 71] were, in that order, 288 nM and 26 nM.
With `CCc1cccc(-c2cc(=O)n(C)c3ccc(C(N)(c4ccc(Cl)cc4)c4cncn4C)cc23)c1` (stereo not shown) [Compound 98], the IC50 in series [2] came to 15 nM; in series [1], 6.4 nM.
The matching figures for `CCCc1cccc(-c2cc(=O)n(C)c3ccc(C(N)(c4ccc(Cl)cc4)c4cncn4C)cc23)c1` (stereo not shown) [Compound 100]: 11 nM and 0.52 nM.
